“Also recorded” adds a separate entry of the source. Like-named read-outs stand apart in the source and are kept apart here.
How the values were obtained:
[1] = system: skin of wildtype (wt) or Klk5^-/- mice; assay: erythema/eschar and oedema scoring after application on the skin; format: in vivo; parameters: key to Erythema and Eschar Score after (hrs) 4 / Erythema and Eschar Score after (hrs) 24 / Erythema and Eschar Score after (hrs) 48 / Erythema and Eschar Score after (hrs) 72: 0: No erythema; 1: Very slight erythema (barely perceptible); 2: Well defined erythema; 3: Moderate to severe erythema; 4: Severe erythema (beef redness); key to Oedema Score after (hrs) 4 / Oedema Score after (hrs) 24 / Oedema Score after (hrs) 48 / Oedema Score after (hrs) 72: 0: No oedema; 1: Very slight oedema (barely perceptible); 2: Slight oedema (edges of area well defined by definite raising); 3: Moderate oedema (raised approximately 1mm); 4: Severe erythema (raised more than 1mm and extending beyond area of exposure); conditions: for erythema or oedema in vivo: 1 mM on the skin of wildtype (wt) or Klk5^-/- mice; for erythema or oedema in vivo / toxicity: result in words; for Erythema and Eschar Score after (hrs) 4 / Oedema Score after (hrs) 4 / Erythema and Eschar Score after (hrs) 24 / Oedema Score after (hrs) 24 / Erythema and Eschar Score after (hrs) 48 / Oedema Score after (hrs) 48 / Erythema and Eschar Score after (hrs) 72 / Oedema Score after (hrs) 72: 1 mM on the skin; for Erythema and Eschar Score after (hrs) 4 / Oedema Score after (hrs) 4: 4 hrs; for Erythema and Eschar Score after (hrs) 24 / Oedema Score after (hrs) 24: 24 hrs; for Erythema and Eschar Score after (hrs) 48 / Oedema Score after (hrs) 48: 48 hrs; for Erythema and Eschar Score after (hrs) 72 / Oedema Score after (hrs) 72: 72 hrs; for toxicity: wild type and Klk5^-/- mice
Text: Scoring was based on the following criteria (Table 2 and 3): Table 2 - Scoring criteria for erythema and eschar formation

[2] = target: T1, KLK7 (Homo sapiens, UniProt P49862); format: binding
[3] = system: trypsin; assay: Western-like blotting with activity-based probe; format: binding; conditions: enzyme reacted with probe 2 or 16 hours
Protocol: (§1) For Western-like blotting, the enzymes were reacted with Biotin-FFP for 2 or 16 hours, resolved on SDS-PAGE, then, the proteins were transferred on PVDF membranes. Membranes were blocked with 3% BSA in PBS for 40 min at room temperature, washed twice with PBS and incubated for 1 hour at room temperature with streptavidin-HRP polymer (1:2,000) and subsequently washed four times with PBS containing 0.05% Tween-20. Specific bands were identified with ECL.

[4] = target: T2, KLK6 (Homo sapiens, UniProt Q92876); assay: Western-like blotting with activity-based probe; format: binding; conditions: enzyme reacted with probe 2 or 16 hours
Protocol: as §1

[5] = target: T1, KLK7; assay: gel zymography (casein); format: biochemical
[6] = system: trypsin; assay: gel zymography, specificity; format: biochemical; conditions: 2 hours at room temperature
Protocol: (§2) For gel zymography, the compounds were reacted with the enzymes at room temperature for 2 hours, then mixed with zymogram loading buffer without mercaptoethanol, incubated at 37°C for 15 min and resolved on 12% SDS-PAGE containing 0.1% casein or gelatin substrates. Gels were washed twice with 50 mM Tris-HCI pH 7.5, 5 mM CaCl2, 2.5% Triton X-100 for 15 min, then 15 min with 50 mM Tris-HCI, pH 7.5, 5 mM CaCl2, 0.1% Triton X-100, and finally incubated in the latter buffer for 24 hours and stained with Coomassie G-250. Proteolytic bands appear white against a blue background.

[7] = target: T2, KLK6; assay: gel zymography, specificity; format: biochemical; conditions: 2 hours at room temperature
Protocol: as §2

[8] = system: elastase (ELA); assay: gel zymography, specificity; format: biochemical; conditions: 2 hours at room temperature
Protocol: as §2

[9] = target: T3, KLK13 (Homo sapiens, UniProt Q9UKR3); assay: gel zymography, specificity; format: biochemical; conditions: 2 hours at room temperature
T3 sequence (Q9UKR3 17-277): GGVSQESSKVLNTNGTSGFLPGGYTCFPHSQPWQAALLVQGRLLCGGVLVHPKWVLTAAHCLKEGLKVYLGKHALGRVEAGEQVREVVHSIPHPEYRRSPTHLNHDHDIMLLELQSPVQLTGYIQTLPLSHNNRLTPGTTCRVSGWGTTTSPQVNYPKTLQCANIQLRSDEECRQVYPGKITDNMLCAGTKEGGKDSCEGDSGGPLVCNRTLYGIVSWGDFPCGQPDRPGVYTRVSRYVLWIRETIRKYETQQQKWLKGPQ
Protocol: as §2

[10] = system: trypsin; assay: enzyme kinetic study, cleavage of fluorescent substrate Z-Phe-Arg-AMC; format: biochemical
Protocol: (§3) The enzyme kinetic study testing the ability of Boc-FFP to inhibit trypsin or KLK6 was performed with cleavage of fluorescent substrate Z-Phe-Arg-AMC. The enzymes were used at 12 nM and the substrate at 50 µM. Boc-FFP was used at 1.2 µM (100:1 molar ration inhibitor: enzyme). Aprotinin was used a positive control at 500 nM final concentration. Fluorescence was measured (λexc=380 nm, λem=440 nm) for 3 min and the results were expressed as ΔF/Δt.

[11] = target: T2, KLK6; assay: as above; format: biochemical
Protocol: as §3

[12] = system: Spink5^-/^-Klk5^-/- mice; assay: application on the skin of Spink5^-/^-Klk5^-/- mice (desquamation, inflammatory cytokines); format: in vivo
[13] = target: T1, KLK7; assay: KLK7 inhibition study for IC50 determination, BODIPY-FL casein substrate; format: biochemical; conditions: KLK7 6 nM, inhibitor 50 nM to 10 µM, 16 hours at room temperature, BODIPY-FL casein 30 µg/ml
Protocol: For IC50 determination, KLK7 inhibition study was carried out in assay buffer (100 mM Tris-HCI, pH 7.8, 100 mM NaCl, 10 mM CaCl2, 0.005% Triton X-100). KLK7 (6 nM) was incubated with the inhibitor (50 nM to 10 µM) for 16 hours at room temperature in the assay buffer. Then, the BODIPY-FL casein substrate (Molecular Probes) was added at 30 µg/ml and fluorescence was measured (λexc=485 nm, λem=530 nm). After 3 hours the fluorescence was measured again. Data were inserted into the online available program Very Simple IC50 Tool (http://www.ic50.tk/) for fitting and calculation of the IC50.

[14] = gel zymography, casein, compound reacted with enzyme 2 hours at room temperature
[15] = enzyme kinetic study, result in words

T1 sequence (P49862 30-253): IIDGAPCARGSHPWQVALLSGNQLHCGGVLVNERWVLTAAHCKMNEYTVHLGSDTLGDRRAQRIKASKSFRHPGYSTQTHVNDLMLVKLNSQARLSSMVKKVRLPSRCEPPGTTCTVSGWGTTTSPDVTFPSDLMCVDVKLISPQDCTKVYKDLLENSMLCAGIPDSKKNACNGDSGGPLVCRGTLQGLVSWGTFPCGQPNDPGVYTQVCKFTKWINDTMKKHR

With `O=C(CCCCCNC(=O)CCCC[C@H]1SCC2NC(=O)NC21)NCCCCCC(=O)NC(Cc1ccccc1)C(=O)NC(Cc1ccccc1)P(=O)(Oc1ccccc1)Oc1ccccc1` (stereo partly drawn) [Biotin-FFP, diphenyl 1-(2-(6-(6-(5-((4R)-2-oxo-hexahydro-1H-thieno[3,4-d]imidazole-4-yl)pentanamido)hexanamido)hexanamido)-3-phenylpropanamido)-2-phenylethylphosphonate] the “erythema or oedema in vivo” value [1] was “did not exhibit either erythema or oedema”, the “Erythema and Eschar Score after (hrs) 4” value ([1]; Klk5^-/- mice) was 0 and the “Oedema Score after (hrs) 4” value ([1]; Klk5^-/- mice) was 0. The “Erythema and Eschar Score after (hrs) 24” value ([1]; Klk5^-/- mice) was 0, the “Oedema Score after (hrs) 24” value ([1]; Klk5^-/- mice) was 0 and the “Erythema and Eschar Score after (hrs) 48” value ([1]; Klk5^-/- mice) was 0. For the same compound, the “Oedema Score after (hrs) 48” value ([1]; Klk5^-/- mice) was 0, the “Erythema and Eschar Score after (hrs) 72” value ([1]; Klk5^-/- mice) was 0 and the “Oedema Score after (hrs) 72” value ([1]; Klk5^-/- mice) was 0. For the same compound, the toxicity [1] was “lack toxicity”, the “Erythema and Eschar Score after (hrs) 4” value ([1]; wt mice) was 0 and the “Oedema Score after (hrs) 4” value ([1]; wt mice) was 0. The “Erythema and Eschar Score after (hrs) 24” value ([1]; wt mice) was 0, the “Oedema Score after (hrs) 24” value ([1]; wt mice) was 0 and the “Erythema and Eschar Score after (hrs) 48” value ([1]; wt mice) was 0. The “Oedema Score after (hrs) 48” value ([1]; wt mice) was 0, the “Erythema and Eschar Score after (hrs) 72” value ([1]; wt mice) was 0 and the “Oedema Score after (hrs) 72” value ([1]; wt mice) was 0. For the same compound, the “detection of active KLK7” value [2] was “only detected the active KLK7”, the “labeling of KLK7, signal” value [2] was “higher signal compared to Biotin-FbFP; also recorded: significant signal enhancement” and the detection of trypsin [3] was “not the trypsin or the KLK6; also recorded: does not react with KLK6 and trypsin”. For the same compound, the “detection of KLK6” value [4] was “does not react with KLK6 and trypsin”.
`CC(C)(C)OC(=O)NC(Cc1ccccc1)C(=O)NC(CCc1ccccc1)P(=O)(Oc1ccccc1)Oc1ccccc1` (stereo not drawn) [Boc-FcFP] was tested, and the “inhibition of KLK7 activity” value [5, 14] was “only Boc-FFP can inhibit the activity of KLK7”.
With `CC(C)(C)OC(=O)NC(Cc1ccccc1)C(=O)NC(c1ccccc1)P(=O)(Oc1ccccc1)Oc1ccccc1` (stereo not drawn) [Boc-FbFP] the “inhibition of KLK7 activity” value [5, 14] was “only Boc-FFP can inhibit the activity of KLK7”.
With `CC(C)(C)OC(=O)NC(Cc1ccccc1)C(=O)NC(Cc1ccccc1)P(=O)(Oc1ccccc1)Oc1ccccc1` (stereo not drawn) [Boc-FFP, tert-butvl 1-(1-(diphenoxvphosphorvl)-2-phenylethylamino)-1-oxo-3-phenylpropan-2-ylcarbamate] the inhibition of trypsin [6] was “Only KLK7 was inhibited”, the “inhibition of KLK6” value [7] was “Only KLK7 was inhibited” and the “inhibition of elastase (ELA)” value [8] was “Only KLK7 was inhibited”. The “inhibition of KLK13” value [9] was “Only KLK7 was inhibited”, the “erythema or oedema in vivo” value [1] was “did not exhibit either erythema or oedema” and the “Erythema and Eschar Score after (hrs) 4” value ([1]; Klk5^-/- mice) was 0. The “Oedema Score after (hrs) 4” value ([1]; Klk5^-/- mice) was 0, the “Erythema and Eschar Score after (hrs) 24” value ([1]; Klk5^-/- mice) was 0 and the “Oedema Score after (hrs) 24” value ([1]; Klk5^-/- mice) was 0. For the same compound, the “Erythema and Eschar Score after (hrs) 48” value ([1]; Klk5^-/- mice) was 0, the “Oedema Score after (hrs) 48” value ([1]; Klk5^-/- mice) was 0 and the “Erythema and Eschar Score after (hrs) 72” value ([1]; Klk5^-/- mice) was 0. The “Oedema Score after (hrs) 72” value ([1]; Klk5^-/- mice) was 0, the toxicity [1] was “lack toxicity” and the “Erythema and Eschar Score after (hrs) 4” value ([1]; wt mice) was 0. The “Oedema Score after (hrs) 4” value ([1]; wt mice) was 0, the “Erythema and Eschar Score after (hrs) 24” value ([1]; wt mice) was 0 and the “Oedema Score after (hrs) 24” value ([1]; wt mice) was 0. The “Erythema and Eschar Score after (hrs) 48” value ([1]; wt mice) was 0, the “Oedema Score after (hrs) 48” value ([1]; wt mice) was 0 and the “Erythema and Eschar Score after (hrs) 72” value ([1]; wt mice) was 0. For the same compound, the “Oedema Score after (hrs) 72” value ([1]; wt mice) was 0, the “inhibition of the activity of trypsin” value [10, 15] was “did not inhibit” and the ΔF/Δt ([10]; trypsin 12 nM, Z-Phe-Arg-AMC 50 µM, change in fluorescence over 3 min, Boc-FFP 1.2 µM pre-incubated 2 hours, Aprotinin 500 nM, trypsin alone 33.49) was 33.26. For the same compound, the ΔF/Δt ([11]; KLK6 12 nM, Z-Phe-Arg-AMC 50 µM, change in fluorescence over 3 min, Boc-FFP 1.2 µM pre-incubated 2 hours, Aprotinin 500 nM, KLK6 alone 35.54) was 37.96, the “inhibition of the activity of KLK6” value [11, 15] was “did not inhibit” and the “reduction of macroscopic desquamation” value ([12]; application on the skin of Spink5^-/^-Klk5^-/- mice, versus solvent control side) was “approximately 50%”. For the same compound, the “expression of inflammatory cytokines” value ([12]; skin of Spink5^-/^-Klk5^-/- mice, RT-qPCR, versus solvent treatment) was “suppressed the expression of inflammatory cytokines”, the IC50 [13] was 1910 nM and the “inhibition of KLK7 activity” value [5] was “only Boc-FFP could effectively inhibit KLK7 activity; also recorded: can also inhibit the KLK7 activity; also recorded: can only inhibit the activity of KLK7; also recorded: Only KLK7 was inhibited”.
